This passage reports pKa and Activity results from ChEMBL document CHEMBL1133196, “A model for ZnII-containing-beta-lactamase: synthesis, X-ray crystal structure of a zinc(II) complex bearing thiol group and hydrolysis of phosphate diester” (Bioorg Med Chem Lett, 2000).

The nature of data set [1]: Dissociation constant was evaluated. The class given is physicochemical.
Data set [2] is described as follows: Rate of hydrolysis of nitrocefin by compound was evaluated in water. The class given is ADME. As to conditions: buffer.

What is called pKa is the pH at which an ionisable group is half protonated. On to `Cl.Cl.[Zn+2].c1ccc(CNCc2ccccn2)nc1`, for which the pKa in data set [1] was 9.4. Besides, the Activity in data set [2] is 2.52e-08 M⁻¹ s⁻¹.
In data set [1], `[Cl-].[S-]CCN(Cc1ccccn1)Cc1ccccn1.[Zn+2]` yielded a pKa of 9. In addition, in data set [2], the Activity was found to be 6.5e-09 M⁻¹ s⁻¹.
